In PMC11395244, “Ginsenoside Rh2 Alleviates LPS-Induced Inflammatory Responses by Binding to TLR4/MD-2 and Blocking TLR4 Dimerization” (International Journal of Molecular Sciences, 2024):
pKd: −log10 of the molar value.

Target: T1, MD-2 (measured as TLR4/MD-2 complex) (Homo sapiens, UniProt Q9Y6Y9)
T1 construct: gene LY96; recombinant human TLR4/MD-2; His-Flag TLR4/MD-2 protein; with TLR4
Assay: SPR (Biacore T200, CM5 chip, immobilised TLR4/MD-2 complex)
Assay type: binding

T1 sequence (Q9Y6Y9 19-160): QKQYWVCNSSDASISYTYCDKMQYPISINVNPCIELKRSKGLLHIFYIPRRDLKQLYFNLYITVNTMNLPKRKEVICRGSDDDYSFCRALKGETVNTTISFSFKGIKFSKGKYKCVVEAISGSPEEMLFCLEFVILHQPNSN
T1 sequence (O00206 24-839 partner): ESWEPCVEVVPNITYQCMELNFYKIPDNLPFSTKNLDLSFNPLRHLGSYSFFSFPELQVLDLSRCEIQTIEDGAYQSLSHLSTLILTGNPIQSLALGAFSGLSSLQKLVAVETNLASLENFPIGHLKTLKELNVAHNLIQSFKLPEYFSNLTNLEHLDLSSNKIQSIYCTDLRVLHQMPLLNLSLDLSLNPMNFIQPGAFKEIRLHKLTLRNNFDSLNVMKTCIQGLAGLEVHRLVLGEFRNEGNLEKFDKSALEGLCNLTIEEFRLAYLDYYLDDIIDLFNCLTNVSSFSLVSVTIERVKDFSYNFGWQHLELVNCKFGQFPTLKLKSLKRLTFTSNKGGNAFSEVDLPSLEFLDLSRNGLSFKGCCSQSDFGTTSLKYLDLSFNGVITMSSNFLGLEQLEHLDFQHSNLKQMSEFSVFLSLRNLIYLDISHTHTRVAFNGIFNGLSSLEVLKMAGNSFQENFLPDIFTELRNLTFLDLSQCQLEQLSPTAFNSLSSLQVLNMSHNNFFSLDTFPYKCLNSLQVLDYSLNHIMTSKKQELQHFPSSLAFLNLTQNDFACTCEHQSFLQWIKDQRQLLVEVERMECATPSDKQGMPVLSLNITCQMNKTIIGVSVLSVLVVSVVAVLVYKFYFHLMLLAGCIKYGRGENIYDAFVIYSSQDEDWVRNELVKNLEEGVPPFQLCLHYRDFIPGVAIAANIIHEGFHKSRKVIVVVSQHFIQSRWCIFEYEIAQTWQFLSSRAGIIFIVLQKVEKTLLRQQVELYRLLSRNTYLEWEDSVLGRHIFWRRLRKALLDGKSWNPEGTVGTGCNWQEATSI

CC(C)=CCC[C@](C)(O)[C@H]1CC[C@]2(C)[C@@H]1[C@H](O)C[C@@H]1[C@@]3(C)CC[C@H](O[C@@H]4O[C@H](CO)[C@@H](O)[C@H](O)[C@H]4O)C(C)(C)[C@@H]3CC[C@]12C [G-Rh2, Ginsenoside Rh2]
pKd: 4.15
